Data from article PMC9359557, “Discovery of a novel natural product inhibitor of Clostridioides difficile with potent activity in vitro and in vivo” (PLoS ONE, 2022).
In brackets after ≈: the same amount, converted by molar mass.

What was measured:
C. difficile [1] = experiment: In vitro susceptibility assay (MIC); details: Clostridioides difficile
C. difficile [2] = experiment: Minimum bactericidal concentration (MBC) assay; details: for MBC: Clostridioides difficile
Caco-2 cells = experiment: Cytotoxicity assay (MTS); type: cell-based, human; details: concentration up to 16 μg/ml, 24 hrs
Experimental: A cytotoxicity assay against Caco-2 cells was performed to assess the potential toxic effect of the natural products as described before. Caco-2 cells cultured in DMEM media supplemented with 10% FBS, 1% NEAA, and 1% penicillin/streptomycin were grown at 37°C in presence of 5% CO2. Following trypsinization, cells were seeded to 96-well plates and allowed to grow till cells in each well attained 100% confluence. Hit natural products were added to the cells at a starting concentration of 16 μg/ml whereas control wells received DMSO at the same concentration. The plates were incubated for 24 hrs. after which MTS reagent was added and absorbance was recorded at 490 nm using a SpectraMax i3Multi-Mode Microplate Reader. Caco-2 cell survival post treatment with natural products were plotted as percentage viability of natural product-treated cells in comparison to the DMSO-treated cells using GraphPad prism v. 8.0.
Fig 4 Cytotoxicity assay of natural products against Caco-2 cell line. The percentage of viable Caco-2 cells was measured as the ratio of average absorbance of each sample relative to the negative control (DMSO). The absorbance values represent the mean of three samples of each natural product compound with error bars representing standard deviation values for the absorbance.

Row | SMILES | MIC (C. difficile [1]) [µg/mL] | MIC50 (C. difficile [1]) [µg/mL] | MIC90 (C. difficile [1]) [µg/mL] | MIC (C. difficile [1]; ATCC43255, […]) [µg/mL] | MIC (C. difficile [1]; BAA1870, […]) [µg/mL] | MBC (C. difficile [2]; ATCC43255, […]) [µg/mL] | MBC (C. difficile [2]; BAA1870, […]) [µg/mL] | toxicity to Caco-2 cells (Caco-2 cells) | toxicity to Caco-2 cells (Caco-2 cells; […]) | MIC (C. difficile [1]; ATCC43255) [µg/mL] | MIC (C. difficile [1]; BAA1870) [µg/mL] | bactericidal activity against C. difficile (C. difficile [2]; in words)
1 | CCc1c(Cl)c(O)c(Cl)c(O)c1C(=O)O[C@H]1[C@H](O)[C@H](OC)[C@H](OC/C2=C\C=C\C[C@H](O)/C(C)=C/[C@H](CC)[C@@H](O[C@@H]3OC(C)(C)[C@@H](OC(=O)C(C)C)[C@H](O)[C@@H]3O)/C(C)=C/C(C)=C/C[C@@H]([C@@H](C)O)OC2=O)O[C@@H]1C [Fidaxomicin] | 0.125 (≈ 0.118 µM) | 0.06 (≈ 0.0567 µM) | 0.125 (≈ 0.118 µM) | 0.06 (≈ 0.0567 µM) | 0.06 (≈ 0.0567 µM) | 0.06 (≈ 0.0567 µM) | 0.125 (≈ 0.118 µM) |  |  |  |  | 
2 | CN[C@H](CC(C)C)C(=O)N[C@H]1C(=O)N[C@@H](CC(N)=O)C(=O)N[C@H]2C(=O)N[C@H]3C(=O)N[C@H](C(=O)N[C@H](C(=O)O)c4cc(O)cc(O)c4-c4cc3ccc4O)[C@H](O)c3ccc(c(Cl)c3)Oc3cc2cc(c3O[C@@H]2O[C@H](CO)[C@@H](O)[C@H](O)[C@H]2O[C@H]2C[C@](C)(N)[C@H](O)[C@H](C)O2)Oc2ccc(cc2Cl)[C@H]1O [Vancomycin] |  | 0.5 (≈ 0.345 µM) | 1 (≈ 0.69 µM) | 1 (≈ 0.69 µM) | 1 (≈ 0.69 µM) | 1 (≈ 0.69 µM) | 4 (≈ 2.76 µM) |  |  |  |  | 
3 | CO[C@H]1[C@H](O)C[C@@H](O[C@@H]2C[C@H](Oc3cc4cc5c(c(O)c4c(O)c3C)C(=O)[C@@H](O[C@H]3C[C@H](O[C@H]4C[C@H](O[C@H]6C[C@@](C)(O)[C@@H](OC(=O)C(C)C)[C@H](C)O6)[C@H](O)[C@@H](C)O4)[C@H](O)[C@@H](C)O3)[C@H]([C@H](OC)C(=O)[C@@H](O)[C@@H](C)O)C5)O[C@H](C)[C@H]2OC(C)=O)O[C@@H]1C [NP-003875] | 0.015 (≈ 0.0124 µM) | 0.03 (≈ 0.0248 µM) | 0.03 (≈ 0.0248 µM) |  |  | 0.03 (≈ 0.0248 µM) | 0.03 (≈ 0.0248 µM) | did not exhibit toxicity | non-toxic | 0.03 (≈ 0.0248 µM) | 0.03 (≈ 0.0248 µM) | bactericidal activity
